Experimental data as given in ChEMBL document CHEMBL3046849, “Composition of essential oil of Chinese Chenopodium ambrosioides and insecticidal activity against maize weevil, Sitophilus zeamais” (2011).
Values after ≈ are worked out from the molar mass of the structure shown.

Tests used:
Assay type in all cases: functional
Sitophilus zeamais [1] = assay: Insecticidal activity against adult Sitophilus zeamais assessed as mortality measured daily for 1 week by fumigation assay; conditions: 168 h
Sitophilus zeamais [2] = assay: Contact toxicity against adult Sitophilus zeamais assessed as mortality applied to dorsal thorax of insect measured daily for 1 week; conditions: 168 h
Sitophilus zeamais [3] = assay: Insecticidal activity against adult Sitophilus zeamais assessed as mortality after 24 hr by fumigation assay

SMILES	LC50 (Sitophilus zeamais [1]) [µg/mL]	LD50 (Sitophilus zeamais [2]) [mg/kg]	LC50 (Sitophilus zeamais [3]) [µg/mL]
CC(C)[C@@]12C=C[C@@](C)(CC1)OO2 [(Z)-ASCARIDOLE]	0.84 (≈ 4.99 µM)	0.86	–
CC1=CC=C(C(C)C)CC1 [ALPHA-TERPINENE]	5.46 (≈ 40.1 µM)	3.47	–
CC1=CC2C(CC1)C2(C)C (configuration not stated) [2-CARENE]	14 (≈ 103 µM)	3.55	–
CBr [BROMOMETHANE]	–	–	0.67 (≈ 7.06 µM)
CC(C)[C@]12CC[C@@]3(C)O[C@H]3[C@H]1O2 [ISOASCARIDOLE]	2.45 (≈ 14.6 µM)	2.16	–
Cc1ccc(C(C)C)cc1 [P-CYMENE]	23.3 (≈ 173 µM)	> 23.2	–
P [PHOSPHINE]	–	–	0.006 (≈ 0.176 µM)
